Data set [1] deals with U-87 MG. Briefly: Cytotoxicity against human U87 cells measured after 72 hrs by CCK8 assay. The format is functional, cell-based, U-87MG ATCC.
In a further data set the test system is HeLa. As to the kind of experiment: Cytotoxicity against human HeLa cells measured after 72 hrs by CCK8 assay. The class given is functional, cell-based. (In general: Formazan colour is commonly taken as a measure of viable cells.)
In another data set the test system is A549. As to the kind of experiment: Cytotoxicity against human A549 cells measured after 72 hrs by CCK8 assay. The format is functional, cell-based. The conditions noted are these: A549, 72 h.
A further data set relates to MCF7. Briefly: Cytotoxicity against human MCF7 cells measured after 72 hrs by CCK8 assay. The class given is functional, cell-based. The conditions noted are these: MCF7, 72 h.
Data set [2] can be described thus: Drug uptake in human U87 cells incubated for 24 hrs by confocal laser scanning microscopy. To be noted: u-87mg atcc. The format is ADME, cell-based.
The nature of data set [3]: Drug uptake in human MCF7 cells incubated for 24 hrs by confocal laser scanning microscopy. The class given is ADME, cell-based. To be noted: mcf7, 24 h.
Data set [4] is described as follows: Drug uptake in human U87 cells by flow cytometry analysis. The format is ADME, cell-based. The conditions noted are these: u-87mg atcc. (Flow cytometry measures light scatter and fluorescence of single cells or particles in a stream.)
The nature of data set [5]: Drug uptake in human U87 cells at 20 nM by flow cytometry analysis. To be noted: u-87mg atcc, 0.02 µM. The format is ADME, cell-based.
A short description of data set [6]: Stability in serum (unknown origin) assessed as compound remaining after 180 mins by HPLC analysis. To be noted: read-out: Stability. The format is ADME, cell-free.
Data set [7] deals with T1, DNA topoisomerase 1 (Homo sapiens) (UniProt P11387).
T1 sequence (whole entry): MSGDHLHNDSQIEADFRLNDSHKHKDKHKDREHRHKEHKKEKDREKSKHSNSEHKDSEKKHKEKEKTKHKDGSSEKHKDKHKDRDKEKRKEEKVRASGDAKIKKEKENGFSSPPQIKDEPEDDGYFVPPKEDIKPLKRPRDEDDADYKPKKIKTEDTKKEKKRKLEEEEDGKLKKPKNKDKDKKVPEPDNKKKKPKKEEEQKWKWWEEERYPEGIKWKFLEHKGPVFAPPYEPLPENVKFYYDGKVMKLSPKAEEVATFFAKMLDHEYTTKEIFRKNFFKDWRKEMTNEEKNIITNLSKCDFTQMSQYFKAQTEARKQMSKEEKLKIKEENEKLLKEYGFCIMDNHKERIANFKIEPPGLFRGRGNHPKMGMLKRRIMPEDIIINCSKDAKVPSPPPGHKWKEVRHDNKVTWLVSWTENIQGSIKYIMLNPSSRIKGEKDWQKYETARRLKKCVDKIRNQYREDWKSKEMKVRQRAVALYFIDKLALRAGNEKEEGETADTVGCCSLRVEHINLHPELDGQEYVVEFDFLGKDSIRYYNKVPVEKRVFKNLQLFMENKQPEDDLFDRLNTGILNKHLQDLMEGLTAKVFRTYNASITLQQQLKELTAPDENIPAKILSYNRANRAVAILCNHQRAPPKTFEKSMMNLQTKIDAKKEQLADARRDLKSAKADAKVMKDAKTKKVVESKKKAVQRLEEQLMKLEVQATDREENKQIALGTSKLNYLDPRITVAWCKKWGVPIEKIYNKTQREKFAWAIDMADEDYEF
As to the kind of experiment: Inhibition of topoisomerase 1 (unknown origin) mediated DNA relaxation using supercoiled pBR322 DNA as substrate incubated for 1 hr by EtBr staining based agarose gel electrophoresis method. The conditions noted are these: dose 500-1000 µM.

Data set [8] deals with U-87 MG. As to the kind of experiment: Induction of cell cycle arrest at G2 phase in human U87 cells at 25 nM incubated for 24 hrs by flow cytometry analysis. The format is functional, U-87MG ATCC.
The test system of data set [9] is U-87 MG. Briefly: Inhibition of cell migration in human U87 cells at 25 nM after 16 hrs by scratch assay. The conditions noted are these: U-87MG ATCC. The class given is functional, cell-based.
Data set [10] concerns U-87 MG. Briefly: Inhibition of cell migration in human U87 cells at 25 nM incubated for 48 hrs by transwell assay relative to control. The class given is functional, U-87MG ATCC.
Data set [11] has as its system U-87 MG. As to the kind of experiment: Inhibition of colony formation in human U87 cells at 25 nM pretreated for 24 hrs followed by media replacement for every 3 days by crystal violet staining based assay. The class given is functional, cell-based. To be noted: U-87MG ATCC.
Data set [12] has as its system U-87 MG. As to the kind of experiment: Potency index ratio of 3-fluoro-10-hydroxy-Evodiamine IC50 to test compound IC50 for cytotoxicity against human U87 cells. The format is functional, U-87MG ATCC.

Activity calls are given as the source filed them. No cut-off for these calls is given here. Where only a bound is given, the exact number is not on record here.

Regarding `CN1c2ccc(F)cc2C(=O)N2CCc3c([nH]c4ccc(OC(=O)CCSSCCC(=O)NC[C@@H]5NC(=O)[C@H](Cc6ccccc6)NC(=O)[C@H](CC(=O)O)NC(=O)CNC(=O)[C@H](CCCNC(=N)N)NC5=O)cc34)C21` (stereo partly drawn), the IC50 was 406 nM with U-87 MG [1], 282 nM in the data set on HeLa, > 500 nM with A549 and 138 nM with MCF7.

`CN1c2ccc(F)cc2C(=O)N2CCc3c([nH]c4ccc(OC(=O)CCCC(=O)NCCC[C@@H]5NC(=O)[C@H](Cc6ccccc6)NC(=O)[C@H](CC(=O)O)NC(=O)CNC(=O)[C@H](CCCNC(=N)N)NC5=O)cc34)C21` (stereo partly drawn): the 50% inhibitory concentration (IC50) is > 500 nM in the data set with U-87 MG [1], 324 nM in the data set with HeLa, 460 nM in the data set on A549 and 92.2 nM with MCF7.

For `CN1c2ccc(F)cc2C(=O)N2CCc3c([nH]c4ccc(OC(=O)CCSSCCC(=O)NCCCC[C@@H]5NC(=O)[C@H](Cc6ccccc6)NC(=O)[C@H](CC(=O)O)NC(=O)CNC(=O)[C@H](CCCNC(=N)N)NC5=O)cc34)C21` (stereo partly drawn), the IC50 with U-87 MG [1] amounted to 458 nM; in the data set on HeLa, 197 nM; in the data set on A549, 387 nM; in the data set with MCF7 it was 163 nM.

In the case of `CN1c2ccc(F)cc2C(=O)N2CCc3c([nH]c4ccc(OC(=O)CCCC(=O)NCC[C@@H]5NC(=O)[C@H](Cc6ccccc6)NC(=O)[C@H](CC(=O)O)NC(=O)CNC(=O)[C@H](CCCNC(=N)N)NC5=O)cc34)C21` (stereo partly drawn), the concentration for half-maximal inhibition (IC50) with U-87 MG [1] came to 144 nM; in the data set on HeLa, 306 nM; with A549, 344 nM; in the data set with MCF7, 70.4 nM.

Take `CN1c2ccc(F)cc2C(=O)N2CCc3c([nH]c4ccc(OC(=O)CCCC(=O)NC[C@@H]5NC(=O)[C@H](Cc6ccccc6)NC(=O)[C@H](CC(=O)O)NC(=O)CNC(=O)[C@H](CCCNC(=N)N)NC5=O)cc34)C21` (stereo partly drawn): the IC50 worked out at 285 nM with U-87 MG [1], 302 nM with HeLa, 307 nM in the data set with A549 and 137 nM in the data set on MCF7.

Consider `CN1c2ccc(F)cc2C(=O)N2CCc3c([nH]c4ccc(OC(=O)CCSSCCC(=O)NCC[C@@H]5NC(=O)[C@H](Cc6ccccc6)NC(=O)[C@H](CC(=O)O)NC(=O)CNC(=O)[C@H](CCCNC(=N)N)NC5=O)cc34)C21` (stereo partly drawn), for which the half-inhibitory concentration (IC50) is 247 nM in the data set on U-87 MG [1], > 500 nM in the data set on HeLa, > 500 nM with A549 and 164 nM in the data set on MCF7.

Take `CN1c2ccc(F)cc2C(=O)N2CCc3c([nH]c4ccc(OC(=O)CSCC(=O)NCC[C@@H]5NC(=O)[C@H](Cc6ccccc6)NC(=O)[C@H](CC(=O)O)NC(=O)CNC(=O)[C@H](CCCNC(=N)N)NC5=O)cc34)C21` (stereo partly drawn): the IC50 with U-87 MG [1] amounted to 53 nM; with HeLa, 53.7 nM; in the data set with A549, 38.1 nM; in the data set with MCF7, 60.2 nM.

In the case of `CCN(CC)c1ccc2cc(C(=O)NCCCCCC(=O)NCCCCC(NC(=O)CSCC(=O)Oc3ccc4[nH]c5c(c4c3)CCN3C(=O)c4cc(F)ccc4N(C)C53)C(=O)NCCC[C@@H]3NC(=O)[C@H](Cc4ccccc4)NC(=O)[C@H](CC(=O)O)NC(=O)CNC(=O)[C@H](CCCNC(=N)N)NC3=O)c(=O)oc2c1` (stereo partly drawn), the Drug uptake entry in data set [2] is “Active”; in data set [3] it was “Not Active”; in data set [4] it was “Dose-Dependent Effect and Tde”; in data set [5] it was 44.8%.

Turning to `CN1c2ccc(F)cc2C(=O)N2CCc3c([nH]c4ccc(O)cc34)[C@H]21`, the IC50 in the data set with U-87 MG [1] is 139 nM; with HeLa, 93.4 nM; in the data set with A549 it was 22.4 nM; in the data set with MCF7, 5.2 nM.

As for `CN1c2ccc(F)cc2C(=O)N2CCc3c([nH]c4ccc(OC(=O)CCCC(=O)NCCCC[C@@H]5NC(=O)[C@H](Cc6ccccc6)NC(=O)[C@H](CC(=O)O)NC(=O)CNC(=O)[C@H](CCCNC(=N)N)NC5=O)cc34)C21` (stereo partly drawn), the IC50 in the data set on U-87 MG [1] is 287 nM; in the data set with HeLa, 359 nM; with A549, 479 nM; in the data set on MCF7, 69.8 nM.

For `CN1c2ccc(F)cc2C(=O)N2CCc3c([nH]c4ccc(OC(=O)CCSSCCC(=O)NCCC[C@@H]5NC(=O)[C@H](Cc6ccccc6)NC(=O)[C@H](CC(=O)O)NC(=O)CNC(=O)[C@H](CCCNC(=N)N)NC5=O)cc34)C21` (stereo partly drawn), the 50% inhibitory concentration (IC50) in the data set on U-87 MG [1] was > 500 nM; in the data set with HeLa it was 322 nM; in the data set on A549, > 500 nM; in the data set with MCF7 it was 205 nM.

In the case of `CN1c2ccc(F)cc2C(=O)N2CCc3c([nH]c4ccc(OC(=O)CSCC(=O)NCCCC[C@@H]5NC(=O)[C@H](Cc6ccccc6)NC(=O)[C@H](CC(=O)O)NC(=O)CNC(=O)[C@H](CCCNC(=N)N)NC5=O)cc34)C21` (stereo partly drawn), the IC50 amounted to 83.6 nM with U-87 MG [1], 202 nM with HeLa, 54.1 nM in the data set on A549 and 109 nM in the data set on MCF7.

On to `CN1c2ccc(F)cc2C(=O)N2CCc3c([nH]c4ccc(OC(=O)CSCC(=O)NCCC[C@@H]5NC(=O)[C@H](Cc6ccccc6)NC(=O)[C@H](CC(=O)O)NC(=O)CNC(=O)[C@H](CCCNC(=N)N)NC5=O)cc34)C21` (stereo partly drawn), for which the IC50 with U-87 MG [1] is 29.9 nM; in the data set on HeLa it was 125 nM; in the data set on A549, 45.7 nM; with MCF7, 83.2 nM. In addition, the remaining at 3 h in data set [6] amounted to 60%. Further, the inhibition entry in data set [7] is “Dose-Dependent Effect”. Moreover, the Activity with U-87 MG [8] was >90%. Further, the inhibition entry in the data set with U-87 MG [9] and with U-87 MG [11] was “Active” each time. Also, the inhibition at 0.025 µM with U-87 MG [10] is 25.5%. For the same compound, in the data set on U-87 MG [12], the “Ratio IC50” value is given as 5.

With `CN1c2ccc(F)cc2C(=O)N2CCc3c([nH]c4ccc(OC(=O)CSCC(=O)NC[C@@H]5NC(=O)[C@H](Cc6ccccc6)NC(=O)[C@H](CC(=O)O)NC(=O)CNC(=O)[C@H](CCCNC(=N)N)NC5=O)cc34)C21` (stereo partly drawn), the concentration for half-maximal inhibition (IC50) in the data set on U-87 MG [1] is 130 nM; with HeLa, 74.8 nM; in the data set with A549, 51.5 nM; in the data set on MCF7, 30.6 nM.

What is called IC50 is the concentration at which inhibition is half-maximal. Broadly, the inhibition is the change of the read-out against control, counted positive when it falls.

Source of the values: ChEMBL document CHEMBL5550164, “Enhancing anticancer treatment: Development of cRGD-Conjugated F-OH-Evo prodrugs for targeted delivery” (Bioorg Med Chem, 2024).
